Source: patent publication US11065319B2, “Methods for diagnosing and reducing incidences of cardiac allograft rejection” (3DT Holdings, LLC, priority 2014, dated 2021)
Several values for one entry are separate records, joined by “and”; a condition that tells them apart may be missing. Equal entries are not always repeated. Entries after “also recorded” stand apart in the source; their conditions may differ.

Columns and labels:
[1] = test system: human aortic and microvascular endothelial cells; test: Incubation of cultured endothelial cells with CRP (cell activation); type: cell-based; details: incubation with CRP vs controls without CRP
Description: Additionally, note the absence of ICAM-1 (subpart A of FIG. 7) and NF-κB nuclear expression (subpart C of FIG. 7) in the controls that lacked CRP exposure.

[2] = test system: IgM in human heart biopsies; test: Displacement (elution) of IgM from human heart transplant biopsies; type: binding; details: for removal of IgM from heart biopsies by incubation: PC 50 mM, CRP 2.58 mg/ml, albumin 1 mg/ml; for vascular IgM in biopsy after incubation (immunohistochemistry): displacement experiments; for IgM anti-PC in biopsy eluates (ELISA): eluates after incubation of biopsies; for IgM in western blots of biopsy eluates: following incubation of biopsies
Description: To verify if the IgM removed from the heart biopsies is PC-specific, ELISA was performed.
One hundred and seventy-two (172) adult heart transplant patients (having a number of serial biopsies per patient in first three months post-transplant) were followed for several years and subsequently analyzed. CAV was diagnosed with serial angiographies for each patient. The percentage of microvascular IgM was quantified with double staining (IgM/CD31 or Ulex europaeus lectin). IgM and IgM anti-phosphorylcholine (PC) from biopsy eluates were determined with immunoblotting and enzyme-linked immunosorbent assays (ELISAs). Statistical analyses used univariate logistic regression, multivariate stepwise models, and Kaplan-Meier curves for different tertile groups.

IgM anti-PC NAbs = test: PC-KLH immunization of mice, serum IgM anti-PC by ELISA; type: in vivo
Description: In group 1, normal C57BL/6 mice (IgG+IgM producers) were immunized by PC-keyhole limpet hemocyanin (PC-KLH) to induce anti-PC NAb production. In group 2, IgM-deficient mice that have impaired IgM antibody production, but still have an IgG response were immunized.
As controls for PC immunization, mice of the same genotypes were vaccinated with KLH. These procedures define the conditions of a 2×2 factorial design, as depicted in Table 1, with 2 immunization conditions (PC or KLH), and 2 mouse genotypes (normal C57BL/6 and IgM-deficient). Eight weeks after immunization, all mice were euthanized by CO2 inhalation. Mouse sera from these animals was subsequently used to conduct the two in vitro studies. Additionally, the mouse serum IgM-anti-PC was analyzed using custom ELISA. Specifically, to establish the inflammatory milieu in the mouse sera used for the in vitro experiments, the sera was analyzed for pro-inflammatory TNF-α, IFN-γ, IL-1β, IL-6, IL-12 and anti-inflammatory IL-10 IL-4, IL-13, and TGF-β cytokines (SearchLight Multiplex Assay System, Aushom Biosystems).

cardiac allograft = test: Heterotopic heart transplant model of CAV with PC vaccination; type: in vivo, mice; details: mouse model of heart transplantation
Description: In addition to the mechanisms underlying MΦ differentiation and the effect of NAbs thereon, it is also important to identify what artheroprotective effect (if any) a PC vaccination may have in vivo. In an attempt to determine if experimental induction of IgM anti-PC NAbs have a beneficial effect on graft rejection and survival, experiments were conducted in an in vivo heart transplant model to measure such antibodies' affect on CAV and graft survival. Specifically, heart transplants and experimental vaccination were performed in normal mice (C57BL/6) and in IgM-deficient mice. Thereafter, IgM antibody response was measured, and a determination made as to what (if any) effect the vaccination had on graft survival.
The study used a 2×3 factorial design to test the (a) main effect of immunization defined by 3 conditions: experimental vaccination vs. negative control (vaccination with KLH vehicle) vs. positive control (intra-peritoneal mouse polyclonal IgM); and (b) main effect of mouse genotype—normal C57BL/6 vs. IgM-deficient mice—on cardiac graft rejection (see Table 2). […]
All mice underwent heart transplantation at 16 weeks of age, 8 weeks after initial vaccination. […] Cardiac allograft viability was thereafter assessed by daily abdominal palpation. […]
Graft survival curves were calculated in accordance with the Kaplan-Meier method. […]

Compound | ICAM-1 expression [1] | NF-κB nuclear localization [1] | removal of IgM from heart biopsies by incubation [2] | vascular IgM in biopsy after incubation (immunohistochemistry) [2] | IgM anti-PC in biopsy eluates (ELISA) [2] | IgM in western blots of biopsy eluates [2] | production of specific IgM anti-PC NAbs (IgM anti-PC NAbs) | graft survival (cardiac allograft)
CRP: C-reactive protein, pro-inflammatory molecule | increased ICAM-1 expression | nuclear factor-kappa B (NF-κB) nuclear localization | removed IgM from the biopsies; also recorded: can be removed | removal of IgM; also recorded: showed biopsy removal | 60.49±18.26 U/ml and 60.5±18.3 U/ml | showed IgM |  | 
C[N+](C)(C)CCOP(=O)(O)O [PC, phosphorylcholine] |  |  | removed IgM from the biopsies; also recorded: can be removed | removal of IgM; also recorded: showed biopsy removal | 56.67±19.96 U/ml and 56.7±20.0 U/ml | showed IgM | induced the production of specific IgM anti-PC NAbs | positive effect on graft survival
